Experimental data as given in PMC11211886 (Frontiers in Pharmacology, 2024).
Values joined by “and” are separate entries in the source; they are usually repeats but may differ in a detail not shown here. Equal values may be shown once. Read-outs that look alike come from different tables or passages of the source.

Legend:
plasma proteins [1] = assay: Plasma protein binding (RED), mouse plasma; type: in vitro ADME
Protocol: (§1) The plate containing plasma and buffer was equilibrated for 6 h in a 37°C water shaking bath. After incubation, aliquots of buffer and plasma (20 µL) on both sides were collected and precipitated using organic solvents. […] The post-dialysis recovery of amdizalisib was also measured.

[2] = humans, RP2D 30 mg, phase Ib (n = 90); ref European Society for Medical Oncology, 2021; cited from earlier work
plasma proteins [3] = assay: Plasma protein binding (RED), human plasma; type: in vitro ADME
Protocol: as §1

CYP2E1 = target: T1, CYP2E1 (Homo sapiens, UniProt P05181); assay: Reversible CYP inhibition in HLM, CYP2E1 (chlorzoxazone); type: in vitro ADME; conditions: for enzyme activity remaining: CYP2E1, HLM
T1 construct: tissue Life Technologies (Durham, NC, USA); host or cells: human liver microsomes
Protocol: The markers used to determine the activities of CYP isoforms were phenacetin O-deethylation for CYP1A2 (probe substrate: 50 µM phenacetin), bupropion hydroxylation for CYP2B6 (probe substrate: 70 µM bupropion), paclitaxel 6α-hydroxylation for CYP2C8 (probe substrate: 10 µM paclitaxel), diclofenac 4′-hydroxylation for CYP2C9 (probe substrate: 5 µM diclofenac), S-(+)-mephenytoin 4′-hydroxylation for CYP2C19 (probe substrate: 20 µM S-(+)-mephenytoin), dextromethorphan O-demethylation for CYP2D6 (probe substrate: 6 µM dextromethorphan), chlorzoxazone 6′-hydroxylation for CYP2E1 (probe substrate: 70 µM chlorzoxazone), and testosterone 6β-hydroxylation and midazolam 1′-hydroxylation for CYP3A4/5 (probe substrate: 45 µM testosterone and 5 µM midazolam). […] Alpha-naphthoflavone (0.04 µM), 2-phenyl-2-(1-piperidinyl)propane (5 µM), quercetin (1 µM), sulfaphenazole (0.5 µM), ticlopidine (4 µM), quinidine (0.2 µM), diethyldithiocarbamate (20 µM), and ketoconazole (0.05 µM) were used as positive inhibitors of CYP1A2, 2B6, 2C8, 2C9, 2C19, 2D6, 2E1, and 3A4, respectively. The vehicle control was prepared in the same composition as inhibitor solutions but free of inhibitors. The concentrations of probe substrates were close to Km values that were determined in-house and within the range recommended by the FDA ([Huang et al., 2007]). Reaction mixtures were incubated at 37°C for 5, 20, or 30 min, depending on the probe substrates of CYP isoforms. The reactions were terminated by adding cold acetonitrile containing IS, and the terminated incubation mixtures were centrifuged at 3,000 g for 10 min before LC-MS/MS analysis.

plasma proteins [4] = assay: Plasma protein binding (RED), dog plasma; type: in vitro ADME
Protocol: as §1

[5] = Single-dose PK in cynomolgus monkeys (IV/PO); type: in vivo, cynomolgus monkey
CYP3A4 = assay: CYP induction in human hepatocytes, CYP3A4 enzyme activity; type: in vitro ADME
Protocol: […] […] […] Enzyme activity for each CYP isoform was reported as a fold change over vehicle control and the percent of positive control (detailed calculation in Supplementary 1.1). Hepatocytes were harvested with a lysis buffer from RNeasy 96 Kit (Qiagen Inc., Germantown, MD, USA) to isolate RNA, which was analyzed by real-time quantitative polymerase chain reaction (RT-PCR). […] Emax (the maximal observed induction) and EC50 (the concentration that supports half-maximal induction) were estimated by non-linear regression of fold increase in CYP mRNA expression versus concentration plots.
The fold of vehicle control and the percent of positive control were calculated with the formulas below:
Fold of vehicle control = CYPs activity of test compound (or positive control) treated sample / CYPs activity of vehicle control treated sample
% of positive control = [(fold change in treated sample)-1] / [(fold change in positive control)-1] × 100

[6] = Whole blood-to-plasma partition, rat blood; type: in vitro ADME
Protocol: The whole blood and plasma samples were incubated at 37°C for up to 1 h. Serial samples (150 µL) were collected at different time points (0, 10, and 60 min) and transferred into new tubes. The whole blood samples were then centrifuged at 1700 g for 15 min to harvest plasma.

[7] = both sexes, cynomolgus monkey, in vivo, iv, 1 mg/kg
[8] = both sexes, cynomolgus monkey, in vivo, po, 5 mg/kg

T1 sequence (P05181 whole entry): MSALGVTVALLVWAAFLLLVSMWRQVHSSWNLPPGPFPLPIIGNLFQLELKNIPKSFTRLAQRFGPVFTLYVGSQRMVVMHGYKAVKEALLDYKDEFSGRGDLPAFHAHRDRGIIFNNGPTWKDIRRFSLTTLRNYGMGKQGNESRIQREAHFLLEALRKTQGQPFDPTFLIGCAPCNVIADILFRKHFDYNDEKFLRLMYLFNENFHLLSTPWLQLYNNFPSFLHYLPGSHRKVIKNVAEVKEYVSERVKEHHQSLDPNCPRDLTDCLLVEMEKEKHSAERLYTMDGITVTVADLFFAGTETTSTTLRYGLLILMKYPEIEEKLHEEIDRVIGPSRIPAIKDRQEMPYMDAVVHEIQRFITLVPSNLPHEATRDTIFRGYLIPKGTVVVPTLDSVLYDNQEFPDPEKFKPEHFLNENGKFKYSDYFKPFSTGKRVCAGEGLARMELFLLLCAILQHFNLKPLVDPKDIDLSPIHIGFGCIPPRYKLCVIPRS

C[C@H](Nc1ncnc(N)c1C#N)c1cc2ncc(Cl)n2nc1-c1ccccc1 [Amdizalisib]
Binding fraction to plasma proteins, Mouse (plasma proteins [1]; 1 µM): 91.5 ± 1.01% | Binding fraction to plasma proteins, Mouse (plasma proteins [1]; mouse, 6 h, 0.1 µM, pH 7.4): 91.1 ± 0.95% | Binding fraction to plasma proteins, Mouse (plasma proteins [1]; mouse, 6 h, 20 µM, pH 7.4): 91.3 ± 0.89% | Grade 3 diarrhea [2]: 2.2% | colitis [2]: no colitis cases were reported | serious GI toxicity [2]: less than 5% | Binding fraction to plasma proteins, Human (plasma proteins [3]; 0.1 µM): 94.0 ± 0.86% | Binding fraction to plasma proteins, Human (plasma proteins [3]; 1 µM): 92.8 ± 0.54% | Binding fraction to plasma proteins, Human (plasma proteins [3]; 20 µM): 92.4 ± 0.15% | stability in plasma post-incubation (plasma proteins [3]; all species, 37°C 6 h (data not shown)): > 90% | fraction unbound at 6 h (plasma proteins [3]; plasma, pH 7.4, all species (mouse, rat, dog, monkey, human), 0.1–20 μM): ~0.1 | enzyme activity remaining (CYP2E1; 0.08 μM): 99.7% and 97.6% | enzyme activity remaining (CYP2E1; 0.4 μM): 99.0% and 96.9% | enzyme activity remaining (CYP2E1; 2 μM): 101% and 95.5% | enzyme activity remaining (CYP2E1; 10 μM): 105% and 97.6% | enzyme activity remaining (CYP2E1; 50 μM): 118% and 113% | IC50 (CYP2E1; HLM, reversible, without pre-incubation): > 50 µM | Binding fraction to plasma proteins, Dog (plasma proteins [4]; 0.1 µM): 87.7 ± 5.15% | Binding fraction to plasma proteins, Dog (plasma proteins [4]; 1 µM): 89.1 ± 0.83% | Binding fraction to plasma proteins, Dog (plasma proteins [4]; 20 µM): 88.8 ± 0.69% | FPO ([5]; Cynomolgus monkey, fasted, PO 5 mg/kg, 5 mg/kg): 30.8 ± 8.48% | AUC(0-inf) [5, 7]: 1.52 µg·h/mL | AUC(0-t) [5, 7]: 1.49 µg·h/mL | MRT [5, 7]: 2.2 ± 0.551 h | clearance [5, 7]: 0.678 ± 0.142 L/h/kg | AUC(0-inf) [5, 8]: 2.39 µg·h/mL | AUC(0-t) [5, 8]: 2.33 µg·h/mL | Cmax [5, 8]: 0.48 ± 0.147 µg/mL | MRT [5, 8]: 4.9 ± 1 h | Tmax [5, 8]: 2 ± 0.632 h | half-life [5, 8]: 3.1 ± 0.89 h | Vd ([5]; both sexes, in vivo, Cynomolgus monkey, fasted, IV 1 mg/kg, read-out: Vss): 1.45 ± 0.207 L/kg | half-life ([5]; both sexes, in vivo, Cynomolgus monkey, fasted, IV 1 mg/kg, read-out: t1/2 (converted)): 2.82 ± 0.469 h | CL as % of the hepatic blood flow ([5]; both, cynomolgus monkey, in vivo, iv): 25.7% | FPO ([5]; both, cynomolgus monkey, in vivo, po, 5 mg/kg): 30.8% | Enzyme activity Percent of PC (%) (CYP3A4; CYP3A4, donor seven, 1 µM): 4.50% | Enzyme activity Percent of PC (%) (CYP3A4; CYP3A4, donor seven, 3 µM): 4.60% | Enzyme activity Percent of PC (%) (CYP3A4; CYP3A4, donor seven, 10 µM): 19.8% | Enzyme activity Percent of PC (%) (CYP3A4; CYP3A4, donor seven, 20 µM): 5.20% | Enzyme activity Percent of PC (%) (CYP3A4; CYP3A4, donor seven, 30 µM): 4.60% | Enzyme activity Percent of PC (%) (CYP3A4; CYP3A4, donor six, 1 µM): 0.50% | Enzyme activity Percent of PC (%) (CYP3A4; CYP3A4, donor six, 3 µM): 3.60% | Enzyme activity Percent of PC (%) (CYP3A4; CYP3A4, donor six, 10 µM): 19.8% | Enzyme activity Percent of PC (%) (CYP3A4; CYP3A4, donor six, 20 µM): 28.9% | Enzyme activity Percent of PC (%) (CYP3A4; CYP3A4, donor six, 30 µM): 17.7% | Enzyme activity Percent of PC (%) (CYP3A4; CYP3A4, donor two, 1 µM): 0.10% | Enzyme activity Percent of PC (%) (CYP3A4; CYP3A4, donor two, 3 µM): 0.40% | Enzyme activity Percent of PC (%) (CYP3A4; CYP3A4, donor two, 10 µM): 4.40% | Enzyme activity Percent of PC (%) (CYP3A4; CYP3A4, donor two, 20 µM): 1.30% | Enzyme activity Percent of PC (%) (CYP3A4; CYP3A4, donor two, 30 µM): 1.40% | induction of CYP3A4 enzyme activity (CYP3A4; up to 30.0 µM, all three donors): not considered an inducer | RB ([6]; rat blood, 1 μM, 0 min): 1.08 | RB ([6]; rat blood, 1 μM, 60 min): 1.03 | fuB ([6]; rat blood, 10 min): 8.41% | fuB ([6]; rat, 0 min, 1 µM): 9.11% | fup ([6]; rat, 1 µM): 0.0980 | RB ([6]; rat, 10 min, 1 µM): 1.16 | fuB ([6]; rat, 60 min, 1 µM): 9.49%
